Source: patent US11524962B2, “Substituted pyrrolo[2,3-d]pyrimidines as inhibitors of protein arginine methyl transferase 5 (PRMT5)” (PRELUDE THERAPEUTICS, INCORPORATED, priority 2017, dated 2022)
pIC50: −log10 of the molar value. Read-outs that look alike come from different tables or passages of the source. Values belong to the compound of their own block, whether it stands above or below them.

Legend:
[1] = In vivo pharmacokinetic study in rat; details: for clearance / half-life / Vd / bioavailability: Sprague-Dawley (SD), blood; for clearance / half-life / Vd: iv; for Vd: read-out: Vss; for bioavailability: po
Method: In a rat (SD, male, non-fasted) non-crossover cassette (n=2) PK study, Example 1 was dosed at 0.5 mg/kg (DMA: […]=5:95, solution) with another compound via i.v. administration (N=3) and 2 mg/kg (0.5% o Na CMC+0.50% Tween80, suspension) with another compound via oral gauge (p.o.) (N=3).
In a rat (SD, male and female, non-fasted) non-crossover cassette (n=4) PK study, Example 6 was dosed at 0.2 mg/kg (DMA: […]=5:95, solution) with other 3 compounds via i.v. administration (N=2 per sex) and 2 mg/kg (0.5% o Na CMC+0.50% Tween80, suspension) with other 3 compounds via oral gauge (p.o.) (N=2 per sex).
In a rat (SD, male and female, non-fasted) non-crossover PK study, Example 11 was dosed at 1 mg/kg (DMA: 20% HPBCD=5:95, solution) via i.v. administration (N=3 per sex) and 3 mg/kg (0.5% Na CMC+0.5% Tween80, suspension) via oral gauge (p.o.) (N=3 per sex).

U-87 MG cells = test: Cell proliferation assay in U-87 MG cells; format: cell-based; details: Homo sapiens, 240 h, day 10, read-out: Prolif_U87 IC50
Method: One day before experiment, Granta-519 cells were passaged to a density of 0.5×10^6 cells/ml. U-87 MG cells were trypsinized and 2,000 cells were seeded into 96-well plates and allow to grow overnight. On the day of experiment (day 0), Granta-519 Cells were spun down at 1,500 rpm for 4 min, resuspended in fresh medium to 0.5×10^6 cells/ml and 190 ul of cells were added to 96 well plates. For U-87 MG cells, old medium was removed and replaced with 190 uL fresh medium. Compound working stocks were first diluted at 1:50 with fresh medium in 96 well plate and 10 μL of diluted drugs were added to 96 well plates containing cells and incubated for 3 days. DMSO was used a vehicle control.
One day 3, 50 uL of Granta-519 cells were transferred to a new 96-well plate and 140 uL fresh medium was added. For U-87 MG cells, old medium was removed and replaced with 190 uL fresh medium. Compound working stocks were freshly diluted at 1:50 with medium and 10 μL of diluted drugs were added to cells and grow for 3 additional days. The same process was repeated on day 6. Cells were allowed to grow for additional 4 days.
On day 10, 100 uL Granta-519 cells were transferred to a new 96 well plate and 10 μL of Cell Counting Kit-8 (CCK-8, Jojindo, CK04-13) solution was added. For U-87 MG cells, old medium was removed and replaced with 100 uL fresh medium and 10 uL CCK-8 solution was added. Plates were incubated in CO2 incubator for 2 hours (Granta-519 cells) or 30 min (U-87 MG cells) and OD450 values were measured with a microplate reader (iMark microplate reader, Bio-Rad). Percentage of viable cells, relative to DMSO vehicle control, were calculated and plotted in Graphpad Prism ([Inhibitor]vs. normalized response−Variable slope) to determine proliferation IC50 values on day 10.
These cell proliferation procedures produced the data in Table 7.

[2] = In vivo brain exposure study in mouse; details: po, mouse CD-1 male, 10 mg/kg p.o.
Method: In a mouse (CD-1, male) brain exposure cassette study, Examples 2 and 6 were dosed together at 10 mg/kg each (0.5% Na CMC+0.5% Tween80, solution) via oral gauge (p.o.). At 3 time points (N=3), 2h, 4h and 8h, plasma and brain samples were analyzed for average drug concentrations.
In a mouse (CD-1, male) brain exposure study, Examples 11 was dosed at 10 mg/kg each (0.5% Na CMC+0.5% Tween80, solution) via oral gauge (p.o.). At 3 time points (N=3), 1 h, 2h and 4h, plasma and brain samples were analyzed for average drug concentrations.

[3] = rat SD female, i.v. 0.2 mg/kg, cassette
[4] = rat SD male, i.v. 0.2 mg/kg, cassette
[5] = rat SD female, p.o. 2 mg/kg, cassette (n=4)
[6] = rat SD male, p.o. 2 mg/kg, cassette (n=4)
[7] = cassette, brain, read-out: Brain-2 h
[8] = cassette, brain, read-out: Brain-4 h
[9] = cassette, brain, read-out: Brain-8 h
[10] = cassette, plasma, read-out: Plasma-2 h
[11] = cassette, plasma, read-out: Plasma-4 h
[12] = cassette, plasma, read-out: Plasma-8 h
[13] = rat SD male, i.v. 0.5 mg/kg, cassette

clearance [1, 3]: 21.6 mL/min/kg
half-life [1, 3]: 1.69 h
Vd [1, 3]: 1.91 L/kg
clearance [1, 4]: 59.2 mL/min/kg
half-life [1, 4]: 0.46 h
Vd [1, 4]: 1.81 L/kg
bioavailability [1, 5]: > 100%
bioavailability [1, 6]: 51.1%
dose normalized AUC [1, 5]: 1143 ng·kg·h/mL/mg
dose normalized AUC [1, 6]: 144 ng·kg·h/mL/mg
pIC50 (U-87 MG cells): 6.94
concentration at 2 h [2, 7]: 183 ng/g
concentration at 4 h [2, 8]: 45.9 ng/g
concentration at 8 h [2, 9]: 50.5 ng/g
concentration at 2 h [2, 10]: 380 ng/mL
concentration at 4 h [2, 11]: 138 ng/mL
concentration at 8 h [2, 12]: 33.7 ng/mL
SMILES: Nc1ncnc2c1c(F)cn2[C@@H]1O[C@H]([C@H](O)c2ccc3c(c2)CC3)[C@@H](O)[C@H]1O [Example 6, (2R,3R,4S,5R)-2-(4-amino-5-fluoro-7H-pyrrolo[2,3-d]pyrimidin-7-yl)-5-((R)-bicyclo[4.2.0]octa-1(6),2,4-trien-3-yl(hydroxy)methyl)tetrahydrofuran-3,4-diol]

SMILES: Cc1ncnc2c1ccn2[C@@H]1O[C@H]([C@H](O)c2ccc3c(c2)CC3)[C@@H](O)[C@H]1O [Example 11, (2R,3S,4R,5R)-2-((R)-bicyclo[4.2.0]octa-1(6),2,4-trien-3-yl(hydroxy)methyl)-5-(4-methyl-7H-pyrrolo[2,3-d]pyrimidin-7-yl)tetrahydrofuran-3,4-diol]
clearance ([1]; rat SD female, i.v. 1 mg/kg): 37.2 mL/min/kg
half-life ([1]; rat SD female, i.v. 1 mg/kg): 1.84 h
Vd ([1]; rat SD female, i.v. 1 mg/kg): 2.71 L/kg
clearance ([1]; rat SD male, i.v. 1 mg/kg): 77.5 mL/min/kg
half-life ([1]; rat SD male, i.v. 1 mg/kg): 1.06 h
Vd ([1]; rat SD male, i.v. 1 mg/kg): 2.85 L/kg
bioavailability ([1]; rat SD female, p.o. 3 mg/kg): 97%
bioavailability ([1]; rat SD male, p.o. 3 mg/kg): 13%
dose normalized AUC ([1]; rat SD female, p.o. 3 mg/kg): 434 ng·kg·h/mL/mg
dose normalized AUC ([1]; rat SD male, p.o. 3 mg/kg): 33 ng·kg·h/mL/mg
pIC50 (U-87 MG cells): 6.69
concentration at 1 h ([2]; brain, read-out: Brain-1 h): 188 ng/g
concentration at 2 h ([2]; brain, read-out: Brain-2 h): 85.7 ng/g
concentration at 4 h ([2]; brain, read-out: Brain-4 h): 50.2 ng/g
concentration at 1 h ([2]; plasma, read-out: Plasma-1 h): 207 ng/mL
concentration at 2 h ([2]; plasma, read-out: Plasma-2 h): 148 ng/mL
concentration at 4 h ([2]; plasma, read-out: Plasma-4 h): 53.6 ng/mL

clearance [1, 13]: 56.2 mL/min/kg
half-life [1, 13]: 0.35 h
Vd [1, 13]: 1.36 L/kg
dose normalized AUC ([1]; rat SD male, p.o. 2 mg/kg, cassette): 145 ng·kg·h/mL/mg
SMILES: C[C@@](O)(c1ccc2c(c1)CC2)[C@H]1O[C@@H](n2ccc3c(N)ncnc32)[C@H](O)[C@@H]1O [Example 1, (2R,3R,4S,5S)-2-(4-amino-7H-pyrrolo[2,3-d]pyrimidin-7-yl)-5-((R)-1-(bicyclo[4.2.0]octa-1(6),2,4-trien-3-yl)-1-hydroxyethyl)tetrahydrofuran-3,4-diol]

concentration at 2 h [2, 7]: 244 ng/g
concentration at 4 h [2, 8]: 174 ng/g
concentration at 8 h [2, 9]: 76.2 ng/g
concentration at 2 h [2, 10]: 1610 ng/mL
concentration at 4 h [2, 11]: 802 ng/mL
concentration at 8 h [2, 12]: 178 ng/mL
SMILES: Nc1ncnc2c1ccn2[C@@H]1O[C@H]([C@H](O)c2ccc3c(c2)CC3)[C@@H](O)[C@H]1O [Example 2, (2R,3R,4S,5R)-2-(4-amino-7H-pyrrolo[2,3-d]pyrimidin-7-yl)-5-((R)-bicyclo[4.2.0]octa-1(6),2,4-trien-3-yl(hydroxy)methyl)tetrahydrofuran-3,4-diol]
